Each structure is given as a SMILES string. Activity calls are given as the source filed them. A value given as a limit tells only on which side of the number the result lay.

Data set [1] deals with Vero. Kind of data set: cells. It counts as functional. The settings on record: Chlorocebus sabaeus.
Data set [2] concerns the target Cytochrome P450 2C9 (Homo sapiens, UniProt P11712).
The target of data set [3] is Large T antigen (Simian virus 40, UniProt P03070). In kind it is functional, Betapolyomavirus macacae.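 Also: Confirmatory-stage PubChem screen for compounds that inhibit SV40 T antigen.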
Large T antigen, sequence (P03070 whole entry): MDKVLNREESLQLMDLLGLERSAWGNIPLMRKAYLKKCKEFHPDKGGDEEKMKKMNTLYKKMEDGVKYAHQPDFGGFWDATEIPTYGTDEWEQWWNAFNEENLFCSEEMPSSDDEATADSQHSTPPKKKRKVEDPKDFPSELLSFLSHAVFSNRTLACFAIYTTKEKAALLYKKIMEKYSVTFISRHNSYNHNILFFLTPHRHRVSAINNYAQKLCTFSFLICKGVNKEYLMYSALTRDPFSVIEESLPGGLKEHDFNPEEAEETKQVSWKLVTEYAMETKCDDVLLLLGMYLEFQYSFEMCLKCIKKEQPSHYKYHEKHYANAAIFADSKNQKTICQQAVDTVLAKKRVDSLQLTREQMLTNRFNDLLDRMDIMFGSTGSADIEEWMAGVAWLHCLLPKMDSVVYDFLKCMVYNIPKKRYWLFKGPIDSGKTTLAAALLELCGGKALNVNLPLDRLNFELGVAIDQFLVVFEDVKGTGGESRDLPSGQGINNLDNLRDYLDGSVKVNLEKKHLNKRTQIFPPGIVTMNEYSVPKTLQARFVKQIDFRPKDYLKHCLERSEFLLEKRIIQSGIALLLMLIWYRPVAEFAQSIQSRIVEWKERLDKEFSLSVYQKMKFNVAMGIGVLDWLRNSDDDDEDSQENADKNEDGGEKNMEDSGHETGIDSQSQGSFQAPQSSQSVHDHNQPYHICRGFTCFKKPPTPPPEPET
Data set [4] deals with T1, Cysteine protease ATG4B (Homo sapiens, UniProt Q9Y4P1).
T1 sequence (Q9Y4P1 whole entry): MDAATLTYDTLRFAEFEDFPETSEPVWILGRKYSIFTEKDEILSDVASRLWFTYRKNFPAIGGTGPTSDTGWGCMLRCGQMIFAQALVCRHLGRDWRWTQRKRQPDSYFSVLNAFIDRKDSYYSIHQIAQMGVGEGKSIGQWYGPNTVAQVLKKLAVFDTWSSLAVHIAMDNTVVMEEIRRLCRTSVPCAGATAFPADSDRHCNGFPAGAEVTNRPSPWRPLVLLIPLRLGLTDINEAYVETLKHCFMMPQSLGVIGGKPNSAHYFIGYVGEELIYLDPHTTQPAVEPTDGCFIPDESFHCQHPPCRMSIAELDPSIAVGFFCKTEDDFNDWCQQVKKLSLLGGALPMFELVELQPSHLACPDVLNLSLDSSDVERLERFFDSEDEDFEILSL
In kind it is functional.

The target in data set [5] is T2, Replicative DNA helicase DnaB (Mycobacterium tuberculosis, UniProt P9WMR3).
T2 sequence (P9WMR3 whole entry): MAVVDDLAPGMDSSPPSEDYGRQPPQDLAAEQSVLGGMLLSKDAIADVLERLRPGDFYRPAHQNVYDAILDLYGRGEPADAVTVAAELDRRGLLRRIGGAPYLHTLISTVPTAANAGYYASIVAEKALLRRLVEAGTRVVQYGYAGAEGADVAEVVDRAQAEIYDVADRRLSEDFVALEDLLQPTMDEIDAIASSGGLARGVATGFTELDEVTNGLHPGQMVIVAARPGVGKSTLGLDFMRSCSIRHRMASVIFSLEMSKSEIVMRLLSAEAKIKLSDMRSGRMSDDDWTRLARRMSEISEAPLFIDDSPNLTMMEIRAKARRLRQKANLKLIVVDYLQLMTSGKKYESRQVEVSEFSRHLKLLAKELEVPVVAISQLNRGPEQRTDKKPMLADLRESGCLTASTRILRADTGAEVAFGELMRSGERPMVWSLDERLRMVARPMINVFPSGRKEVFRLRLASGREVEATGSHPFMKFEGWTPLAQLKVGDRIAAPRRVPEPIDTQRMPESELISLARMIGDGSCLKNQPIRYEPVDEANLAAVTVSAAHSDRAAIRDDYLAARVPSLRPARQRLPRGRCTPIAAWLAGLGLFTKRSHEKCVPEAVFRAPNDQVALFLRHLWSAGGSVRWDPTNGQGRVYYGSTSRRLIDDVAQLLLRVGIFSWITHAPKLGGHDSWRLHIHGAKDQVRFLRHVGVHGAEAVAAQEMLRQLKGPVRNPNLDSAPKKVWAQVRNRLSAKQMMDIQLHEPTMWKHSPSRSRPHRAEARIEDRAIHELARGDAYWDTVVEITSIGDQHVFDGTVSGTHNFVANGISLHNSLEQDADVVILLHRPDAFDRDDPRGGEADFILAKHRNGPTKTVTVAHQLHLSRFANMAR
In words: DnaB intein splicing inhibitors, dose response, biochemical, cell-free fluorescence (AID 449749). In kind it is functional.

Data set [6] concerns the target Phospholipase A2 (Homo sapiens, UniProt P04054). It counts as functional.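 Also: confirmatory dose-response counterscreen on phospholipase A2, testing hits that came from an ultra-high-throughput screen for ATG4B inhibitors.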
In data set [7] the target is T3, Protein RecA (Mycobacterium tuberculosis, UniProt P9WHJ3).
T3 sequence (P9WHJ3 whole entry): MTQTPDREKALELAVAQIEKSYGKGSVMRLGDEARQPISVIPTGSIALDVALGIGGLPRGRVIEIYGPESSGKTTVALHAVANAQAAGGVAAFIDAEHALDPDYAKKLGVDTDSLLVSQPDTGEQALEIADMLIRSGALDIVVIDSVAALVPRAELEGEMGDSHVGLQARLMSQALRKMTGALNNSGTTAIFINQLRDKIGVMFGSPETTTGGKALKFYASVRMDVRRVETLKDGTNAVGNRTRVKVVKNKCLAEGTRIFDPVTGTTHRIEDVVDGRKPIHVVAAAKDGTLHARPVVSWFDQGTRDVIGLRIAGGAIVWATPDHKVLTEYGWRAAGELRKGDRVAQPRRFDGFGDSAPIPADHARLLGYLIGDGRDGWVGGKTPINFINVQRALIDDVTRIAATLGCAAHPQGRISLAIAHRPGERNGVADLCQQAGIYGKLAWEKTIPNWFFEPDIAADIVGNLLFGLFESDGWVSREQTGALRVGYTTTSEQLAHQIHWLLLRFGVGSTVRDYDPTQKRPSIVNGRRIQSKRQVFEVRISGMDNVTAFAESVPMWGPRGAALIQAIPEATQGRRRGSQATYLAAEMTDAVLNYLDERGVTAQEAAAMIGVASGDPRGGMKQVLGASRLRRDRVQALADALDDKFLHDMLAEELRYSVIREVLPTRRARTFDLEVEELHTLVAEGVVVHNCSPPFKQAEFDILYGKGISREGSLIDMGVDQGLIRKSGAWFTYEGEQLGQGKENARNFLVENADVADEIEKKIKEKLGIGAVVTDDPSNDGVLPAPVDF
Kind of data set: Fluorescence Cell-Free Homogeneous Dose Retest to Identify Inhibitors of RecA-Intein Splicing Activity. [Related pubchem assays (depositor defined):AID2097, AID2223, AID489010, AID492950]. It counts as functional.

For data set [8], the target named is T4, Fatty acid synthase (Homo sapiens, UniProt P49327). Kind of data set: inhibition of human FAS-TE enzyme activity – biochemical, endpoint fluorescence intensity, uHTS hits, dose response (AID 624327).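 Also: fluorescence from hydrolysis of an O-methyl fluorescein acyl ester substrate by the enzyme.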 It counts as functional.
T4 sequence (P49327 whole entry): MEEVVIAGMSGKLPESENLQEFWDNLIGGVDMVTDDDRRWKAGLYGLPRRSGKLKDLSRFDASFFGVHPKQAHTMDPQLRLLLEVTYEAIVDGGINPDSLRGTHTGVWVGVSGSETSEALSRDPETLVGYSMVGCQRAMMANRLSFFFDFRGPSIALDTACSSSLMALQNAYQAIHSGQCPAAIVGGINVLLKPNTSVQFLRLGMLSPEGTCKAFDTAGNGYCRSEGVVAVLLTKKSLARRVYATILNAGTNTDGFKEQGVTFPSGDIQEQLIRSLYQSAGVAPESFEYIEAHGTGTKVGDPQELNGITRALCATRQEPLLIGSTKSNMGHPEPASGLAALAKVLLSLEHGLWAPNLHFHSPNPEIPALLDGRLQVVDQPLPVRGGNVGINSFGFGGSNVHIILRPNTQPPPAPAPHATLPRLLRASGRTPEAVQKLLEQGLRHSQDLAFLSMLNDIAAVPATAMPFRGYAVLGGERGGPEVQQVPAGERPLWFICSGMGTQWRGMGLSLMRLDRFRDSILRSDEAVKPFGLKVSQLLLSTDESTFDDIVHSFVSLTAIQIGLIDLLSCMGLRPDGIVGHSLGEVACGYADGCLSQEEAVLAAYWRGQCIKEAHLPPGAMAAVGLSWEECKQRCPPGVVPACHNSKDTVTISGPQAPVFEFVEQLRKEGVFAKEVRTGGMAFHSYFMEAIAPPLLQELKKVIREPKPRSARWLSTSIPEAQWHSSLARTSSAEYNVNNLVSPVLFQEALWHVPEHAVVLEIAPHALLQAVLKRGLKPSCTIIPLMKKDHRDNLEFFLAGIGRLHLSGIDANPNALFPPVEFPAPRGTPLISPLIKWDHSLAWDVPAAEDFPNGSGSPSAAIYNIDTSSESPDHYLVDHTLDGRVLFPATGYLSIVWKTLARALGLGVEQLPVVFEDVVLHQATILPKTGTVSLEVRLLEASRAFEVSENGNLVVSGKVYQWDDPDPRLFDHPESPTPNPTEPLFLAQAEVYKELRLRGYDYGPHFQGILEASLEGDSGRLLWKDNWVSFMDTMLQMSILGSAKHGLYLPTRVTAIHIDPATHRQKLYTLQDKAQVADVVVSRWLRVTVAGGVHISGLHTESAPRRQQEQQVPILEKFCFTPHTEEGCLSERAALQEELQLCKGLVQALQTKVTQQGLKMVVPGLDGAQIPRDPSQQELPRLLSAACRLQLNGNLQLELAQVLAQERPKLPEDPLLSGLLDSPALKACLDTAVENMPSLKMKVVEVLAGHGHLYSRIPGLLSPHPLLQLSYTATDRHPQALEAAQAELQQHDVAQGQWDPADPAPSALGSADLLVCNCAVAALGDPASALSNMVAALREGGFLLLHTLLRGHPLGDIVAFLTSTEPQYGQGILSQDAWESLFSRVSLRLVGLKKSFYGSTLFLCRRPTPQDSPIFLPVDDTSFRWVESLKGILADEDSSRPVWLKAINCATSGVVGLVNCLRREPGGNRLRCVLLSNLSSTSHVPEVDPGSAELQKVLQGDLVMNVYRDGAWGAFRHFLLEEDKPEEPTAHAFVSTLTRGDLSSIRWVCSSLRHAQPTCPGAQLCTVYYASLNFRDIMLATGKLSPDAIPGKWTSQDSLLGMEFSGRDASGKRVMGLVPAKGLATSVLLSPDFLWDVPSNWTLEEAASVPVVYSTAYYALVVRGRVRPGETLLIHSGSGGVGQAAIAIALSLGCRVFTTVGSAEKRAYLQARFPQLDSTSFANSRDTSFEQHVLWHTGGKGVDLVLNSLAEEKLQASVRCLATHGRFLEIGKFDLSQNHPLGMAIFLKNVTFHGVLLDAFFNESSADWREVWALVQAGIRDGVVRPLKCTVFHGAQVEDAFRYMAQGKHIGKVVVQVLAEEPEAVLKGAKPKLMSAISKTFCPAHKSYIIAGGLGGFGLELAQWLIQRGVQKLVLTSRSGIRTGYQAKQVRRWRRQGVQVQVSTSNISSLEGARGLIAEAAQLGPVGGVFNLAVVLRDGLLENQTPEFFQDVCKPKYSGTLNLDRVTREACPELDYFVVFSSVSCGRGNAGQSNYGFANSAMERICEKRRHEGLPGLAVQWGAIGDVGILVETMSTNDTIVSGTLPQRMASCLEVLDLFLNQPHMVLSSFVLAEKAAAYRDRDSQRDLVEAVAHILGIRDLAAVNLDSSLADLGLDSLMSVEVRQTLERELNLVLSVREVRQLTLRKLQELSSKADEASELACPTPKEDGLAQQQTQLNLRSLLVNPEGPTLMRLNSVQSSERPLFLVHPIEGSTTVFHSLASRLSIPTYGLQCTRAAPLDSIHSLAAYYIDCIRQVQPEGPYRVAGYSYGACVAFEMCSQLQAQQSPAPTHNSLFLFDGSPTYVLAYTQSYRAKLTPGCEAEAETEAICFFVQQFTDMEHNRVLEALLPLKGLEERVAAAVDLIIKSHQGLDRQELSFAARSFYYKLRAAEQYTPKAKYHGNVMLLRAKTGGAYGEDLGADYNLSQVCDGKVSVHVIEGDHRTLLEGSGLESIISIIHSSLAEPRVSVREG
For data set [9], the target named is T4, Fatty acid synthase. Kind of data set: inhibition of human FAS-TE enzyme activity – biochemical, kinetic fluorescence intensity, dose response (AID 624326).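 Also: rate of fluorescence rise from hydrolysis of a fluorogenic O-methyl fluorescein ester substrate.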 It counts as functional.
For data set [10], the target named is Cytochrome P450 2D6 (Homo sapiens, UniProt P10635).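 Also: CYP2D6 member of a cytochrome P450 panel assay.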
Cytochrome P450 2D6, sequence (P10635 whole entry): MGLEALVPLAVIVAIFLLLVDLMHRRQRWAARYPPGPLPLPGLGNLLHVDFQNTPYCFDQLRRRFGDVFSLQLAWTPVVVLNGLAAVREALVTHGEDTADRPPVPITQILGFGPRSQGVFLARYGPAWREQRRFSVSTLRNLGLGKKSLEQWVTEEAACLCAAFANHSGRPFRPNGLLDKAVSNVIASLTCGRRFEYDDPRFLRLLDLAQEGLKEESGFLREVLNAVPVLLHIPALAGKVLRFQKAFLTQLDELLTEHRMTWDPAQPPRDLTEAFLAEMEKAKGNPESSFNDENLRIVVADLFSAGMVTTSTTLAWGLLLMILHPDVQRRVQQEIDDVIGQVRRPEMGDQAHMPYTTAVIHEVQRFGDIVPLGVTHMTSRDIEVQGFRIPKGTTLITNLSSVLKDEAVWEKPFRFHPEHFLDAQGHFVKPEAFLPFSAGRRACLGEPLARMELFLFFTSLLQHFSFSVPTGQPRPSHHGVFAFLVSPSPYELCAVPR
Data set [11] in a line: Trypanosoma cruzi growth suppression in host cells – NIH3T3 host cells, beta-gal luminescence, confirmation (AID 2044).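 Also: intracellular parasites grown in NIH/3T3 mouse fibroblasts as host cells; luminescent beta-galactosidase reporter signal from transgenic T. cruzi replicating inside host cells; inhibitors lower the luminescence signal.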 In kind it is functional, cell-based.
A short description of data set [12]: NIH3T3 cell viability loss – ATP luminescence, mouse fibroblasts, counter-screen, dose response (AID 2010).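 Also: cells exposed to compound for about 90 hours before reading.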 In kind it is functional, cell-based. A general note: Counterscreens check selectivity or assay interference.
Data set [13] is described as follows: reduction of Shn3 3'UTR-driven luciferase in osteoblasts – cell-based, Clone20 osteoblasts, firefly luciferase, cherry-picked, dose response (AID 624132).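 Also: firefly luciferase luminescence from reporter carrying the Shn3 3'UTR in osteoblasts.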 In kind it is functional.
Data set [14] is described as follows: loss of viability in HepG2 cells – cell-based, CellTiter-Glo, cherry-picked, cytotoxicity control for Shn3 inhibitor project, dose response (AID 624134). In kind it is functional. For orientation: Cellular ATP, detected with luciferase, serves as a proxy for viable cell number.
Data set [15] can be described thus: non-specific 3'UTR reporter inhibition in Clone20-Shn3RL – cell-based, Renilla luciferase, cherry-picked, counter-screen for Shn3 inhibitor project, dose response (AID 624133). In kind it is functional.
Data set [16] concerns the target T5, Polyadenylate-binding protein 1 (Homo sapiens, UniProt P11940). In words: MLLE binding blockers, Cy5 peptide tracer – biochemical, fluorescence polarization, Cy5-PAM2 peptide, secondary, miRNA deadenylation inhibitor project, dose response (AID 602260). In kind it is functional. The note with it: read-out: IC50_Mean.
Data set [17] deals with T5, Polyadenylate-binding protein 1. In words: MLLE domain peptide-binding blockers, IC50 – biochemical, fluorescence polarization, FITC-PAM2 peptide, dose response (AID 602259). The note with it: read-out: IC50_Mean. In kind it is functional. In general terms: In fluorescence polarisation assays a small probe gives low polarisation when free and higher when bound to something large.

For data set [18], the target named is FAD-linked sulfhydryl oxidase ALR (Homo sapiens, UniProt P55789). Kind of data set: ALR-catalysed DTT oxidation blockers – biochemical, H2O2 detection, luminescence, cherry-pick, dose response (AID 493248).

Phospholipase A2, sequence (P04054 whole entry): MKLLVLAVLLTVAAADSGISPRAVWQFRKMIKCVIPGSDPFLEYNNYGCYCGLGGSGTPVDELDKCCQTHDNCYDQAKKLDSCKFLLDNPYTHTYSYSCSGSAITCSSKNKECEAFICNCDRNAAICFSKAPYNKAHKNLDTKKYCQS
Cytochrome P450 2C9, sequence (P11712 whole entry): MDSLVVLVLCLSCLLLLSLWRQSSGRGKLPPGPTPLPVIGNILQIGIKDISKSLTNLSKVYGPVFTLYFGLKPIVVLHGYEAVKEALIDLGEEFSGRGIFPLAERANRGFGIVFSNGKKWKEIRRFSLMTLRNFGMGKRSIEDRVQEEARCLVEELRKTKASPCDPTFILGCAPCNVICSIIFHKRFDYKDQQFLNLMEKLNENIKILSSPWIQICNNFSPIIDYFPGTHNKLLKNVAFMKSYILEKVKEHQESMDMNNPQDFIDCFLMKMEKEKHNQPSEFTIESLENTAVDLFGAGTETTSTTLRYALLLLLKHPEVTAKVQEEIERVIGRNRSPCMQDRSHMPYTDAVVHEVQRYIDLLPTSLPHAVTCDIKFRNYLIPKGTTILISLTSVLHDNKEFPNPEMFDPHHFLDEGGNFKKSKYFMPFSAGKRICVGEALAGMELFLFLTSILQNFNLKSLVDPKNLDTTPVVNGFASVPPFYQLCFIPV
T5 sequence (P11940 whole entry, the tested form may be a part): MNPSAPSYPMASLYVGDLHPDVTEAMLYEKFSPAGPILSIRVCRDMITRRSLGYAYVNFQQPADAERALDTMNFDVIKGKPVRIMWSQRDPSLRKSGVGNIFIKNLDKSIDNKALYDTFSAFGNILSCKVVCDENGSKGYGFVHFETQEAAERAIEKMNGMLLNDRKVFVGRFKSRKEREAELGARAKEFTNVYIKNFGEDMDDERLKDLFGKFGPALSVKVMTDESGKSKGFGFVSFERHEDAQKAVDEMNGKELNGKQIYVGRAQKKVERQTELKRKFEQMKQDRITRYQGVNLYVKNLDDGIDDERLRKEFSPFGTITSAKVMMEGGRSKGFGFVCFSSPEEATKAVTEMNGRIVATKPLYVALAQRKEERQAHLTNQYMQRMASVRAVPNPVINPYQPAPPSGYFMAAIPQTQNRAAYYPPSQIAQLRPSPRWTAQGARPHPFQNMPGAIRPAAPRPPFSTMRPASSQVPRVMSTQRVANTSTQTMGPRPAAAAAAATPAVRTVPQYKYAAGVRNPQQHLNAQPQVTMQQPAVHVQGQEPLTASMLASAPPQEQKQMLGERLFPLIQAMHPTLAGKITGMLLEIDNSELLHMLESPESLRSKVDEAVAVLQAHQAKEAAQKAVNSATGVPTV

Regarding `COc1cc(C2C3=C(COC3=O)Oc3cc4c(cc32)OCO4)cc(OC)c1OC` (stereo not drawn), the CC50 (commonly the concentration at which the toxic effect on the cells reaches its halfway point) in data set [1] was < 0.05 µM (active).

Take `Cc1cc(=O)oc2cc(O)ccc12` [HYMECROMONE]: in [2], the AC50 (usually the midpoint of the concentration-response curve, whichever way the signal moves) was “inconclusive”.

As for `COc1cc(/C=C2\C(=O)NN(c3ccccc3)C2=O)ccc1OCC(N)=O`, the IC50 in [3] was > 100 µM (active).

On to `Cc1ccc(-c2[nH]nc3c2C(c2ccc(OC(=O)N4CCOCC4)cc2)C(C#N)=C(N)O3)cc1` (stereo not drawn), for which the IC50 was 15.8 µM (active) in [4] and 11.7 µM (active) in data set [6]. In addition, the AC50 in data set [5] is 4.61 µM (active). Also, the EC50 (as a rule, the concentration that produces a half-maximal response) in data set [7] was 1.18 µM (active).

For the compound `O=[N+]([O-])c1cc(CS(=O)(=O)Oc2ccc(Cl)cc2)c(O)c([N+](=O)[O-])c1`, the IC50 in [8] is 16.1 µM (active); in data set [9], 41.7 µM (inactive).

With `CCOC(=O)c1c(NC(=O)COC(=O)c2ccc(S(=O)(=O)C(F)F)cc2)sc(C(=O)N(C)C)c1C`, in [1], the CC50 was > 25 µM (active).

For the compound `Cc1cccc(NC(S)=NNC(=O)c2csc3c2CCCC3)c1`, the IC50 was 11.2 µM (active) in [4] and 13.2 µM (active) in data set [6]. Moreover, the AC50 is 25.1 µM (inconclusive) in [10] and “inconclusive” in data set [2].

Take `COc1cccc(CNc2ccc3[nH]c(O)nc3c2)c1OCc1ccccc1`: in [3], the IC50 is 16.5 µM (active).

Consider `COc1cccc(N2C(=O)NC(=O)/C(=C\NCCN3CCOCC3)C2=O)c1`, for which the AC50 result in data set [2] was “inconclusive”.

`COc1ccc(CNc2cc(-c3cccc(NS(C)(=O)=O)c3)ncn2)c(OC)c1`: the AC50 in [10] was 39.8 µM (inconclusive); in data set [2] it was “inconclusive”.

Turning to `Cc1nn(-c2ccccc2)c(S)c1/C=N/c1ccc([N+](=O)[O-])cc1`, the IC50 in data set [3] was 25.7 µM (active).

Regarding `CNc1ncnc(Sc2ccc(Cl)cc2)c1[N+](=O)[O-]`, the EC50 was 3.2 µM (active) in [11] and > 60 µM (not active) in data set [12]. Besides, the CC50 in data set [1] was > 25 µM (active).

As for `O=c1oc(-c2ccccc2Br)nc2ccccc12`, the IC50 in [8] was 16.1 µM (active); in [9], 13 µM (active).

`CC(=O)c1cccc(-c2ccnc3c2CC(C(=O)Nc2ccc(F)c(Cl)c2)O3)c1` (stereo not drawn): the values for the IC50 in data set [8] and in data set [9] were 7.72 µM (active) and 7.91 µM (active), respectively.

For the compound `COc1ccc(/C=C/C(=O)Nc2nc(C)cc(C)n2)cc1OC`, the AC50 entry in [2] is “inconclusive”.

Turning to `Cc1ccc(NC(=O)CSc2nn(-c3ccccc3)c(=S)s2)cc1S(=O)(=O)N(C)C`, the figures for the AC50 in [13], in data set [14] and in data set [15] were 5.82 µM (active), 45.6 µM (active) and 55.6 µM (active), respectively.

As to `COC(=O)N/N=C/c1cn(CCCOc2ccc(C)cc2)c2ccccc12`, the IC50 in [4] was 10.3 µM (active); in [6], 7.39 µM (active).

Consider `O=C(c1ccc(-n2c(SCc3cccc(F)c3)nc3ccccc3c2=O)cc1)N1CCOCC1`, for which the IC50 in [4] was 10.1 µM (active); in data set [6], 8.49 µM (active).

Regarding `CC(C)(C)c1ccc(C(=O)C2CCCN(C(=O)c3ccccn3)C2)cc1` (stereo not drawn), the IC50 in data set [4] was 15.1 µM (active); in data set [6], 11.5 µM (active).

On to `NC(c1csc(NC(=O)Nc2cccc(C(F)(F)F)c2)n1)C1CCCCC1` (stereo not drawn), for which the AC50 was 4.81 µM (active) in data set [13], 11.3 µM (active) in data set [14] and 7.42 µM (active) in [15].

Take `CCCCOC(=O)CNc1nnc(SCC(=O)OCC)nc1O`: the AC50 in data set [5] is 2.66 µM (active). Moreover, the EC50 in [7] was 4.56 µM (active). Further, the IC50 was > 66 µM (inactive) in data set [16], > 66 µM (inactive) in [17], 7.5 µM (active) in [8] and 9.16 µM (active) in data set [9].

`C[C@@]12C(=O)Nc3cc(F)c(F)cc3C(=O)N1[C@H]1c3ccccc3OC[C@@H]1[C@@H]2c1ccccc1`: the IC50 in data set [8] was 16.9 µM (active); in data set [9] it was 8.59 µM (active).

As for `O=C(COc1cccc2ccccc12)NNC(=O)c1cccs1`, the half-maximal activity concentration (AC50) entry in data set [2] is “inconclusive”.

Regarding `Cn1c(=O)oc2cc(S(=O)(=O)Nc3ccc(O)cc3)ccc21`, the IC50 in [3] is 4.64 µM (active). Also, the AC50 in data set [18] is 1.49 µM (active).

Take `COc1cc(C(=O)N/N=C(\C)Cn2nc([N+](=O)[O-])cc2C)ccc1O`: the IC50 in data set [3] was 29.3 µM (active).

Consider `CCCCOc1ccc(CN2CCC(O)CC2)cc1`, for which the AC50 in [10] is 0.2 µM (inconclusive); in data set [2], “inconclusive”.

Regarding `O=C1OC[C@H](Cc2ccc3c(c2)OCO3)/C1=C\c1ccc2c(c1)OCO2` [SAVININ], the AC50 in data set [13] is 2.66 µM (active); in [14], 59.8 µM (active); in data set [15] it was 23.1 µM (active).

In the case of `O=C(/C=C/c1cccc([N+](=O)[O-])c1)NCCSCc1c(Cl)cccc1Cl`, the IC50 in [8] is 4.12 µM (active); in data set [9], 3.92 µM (active).

The values above are taken from ChEMBL document CHEMBL1201862, “PubChem BioAssay data set” (2004).
